Measured values from patent publication US6379400B1, “Dye compositions and methods of dyeing keratin fibers” (Wella Aktiengesellschaft, priority 1998, dated 2002).

| Structure (SMILES) | melting point [°C] |
| --- | --- |
| COCCNc1ccc([N+](=O)[O-])cc1C [Example 2, N-(2-methoxyethyl)-2-methyl-4-nitrophenylamine] | 97 to 100 |
| COCCNc1ccc([N+](=O)[O-])cc1 [Example 1, N-(2-methoxyethyl)-4-nitro-phenylamine] | 85 to 87 |
